Consider 41 molecules from ChEMBL document CHEMBL1124646, “Sulfur-containing 1,3-dialkylxanthine derivatives as selective antagonists at A1-adenosine receptors” (J Med Chem, 1989).

For assay [1], the target named is T1, Adenosine A2 receptor (Rattus norvegicus, UniProt P29276+P30543).
Description: Inhibition of binding of [3H]5'-(N-ethylcarbamoyl)-adenosine to adenosine A2 receptor in rat striatal membranes
The target of assay [2] is Adenosine receptors; A1 & A2 (Rattus norvegicus) (UniProt P29276+P25099+P30543). Kind of assay: Inhibitory selectivity for A2 receptor in rat striatal membranes and A1 receptor in rat cortical membranes. In kind it is cell membranes. The settings on record: Striatum, Membrane.
Assay [3] has as its target T1, Adenosine A2 receptor. The format is cell membranes, Membrane.
Assay [4] addresses T2, Adenosine receptor A1 (Rattus norvegicus, UniProt P25099).
T2 sequence (P25099 whole entry): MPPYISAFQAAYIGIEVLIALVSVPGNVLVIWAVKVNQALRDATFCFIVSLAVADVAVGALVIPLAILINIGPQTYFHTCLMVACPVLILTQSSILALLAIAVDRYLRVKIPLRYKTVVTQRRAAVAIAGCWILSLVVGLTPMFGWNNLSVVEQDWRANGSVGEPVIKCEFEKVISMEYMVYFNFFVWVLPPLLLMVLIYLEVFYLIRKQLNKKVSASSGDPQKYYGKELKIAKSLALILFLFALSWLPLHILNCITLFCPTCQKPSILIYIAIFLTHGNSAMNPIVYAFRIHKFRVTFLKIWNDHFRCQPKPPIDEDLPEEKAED
The experiment in a line: Inhibition of 1 nM [3H]N-6-(phenylisopropyl)adenosine binding to A1 receptors in rat cortical membranes. The format is cell membranes, Membrane.

For assay [5], the target named is T2, Adenosine receptor A1. The experiment in a line: Inhibition of binding of 1 nM [3H]N-6-(phenylisopropyl)adenosine to adenosine A1 receptor in rat cortical membranes. The format is cell membranes, Membrane.
The target of assay [6] is Adenosine receptors; A1 & A2 (Rattus norvegicus, UniProt P29276+P25099+P30543). Kind of assay: Inhibitory selectivity for A1 receptor in rat striatal membranes and Adenosine A1 receptor in rat cortical membranes. The format is cell membranes, Striatum, Membrane.
Assay [7] has as its target T2, Adenosine receptor A1. Kind of assay: Inhibition of 1 nM [3H]N-6-(phenylisopropyl)adenosine binding to adenosine A1 receptors in rat cortical membranes. In kind it is cell membranes, Membrane.
In assay [8] the target is Adenosine receptor A1 (Rattus norvegicus). Kind of assay: Inhibitory selectivity for A1 receptor in rat striatal membranes and Adenosine A1 receptor in rat cortical membranes.

As usually defined, the Ki is the equilibrium dissociation constant of an inhibitor or competing ligand from its target. Low values mean a stronger hold on the target, high ones a looser hold on the target. `Cn1c(=O)c2nc(-c3cccs3)[nH]c2n(C)c1=O` registered a Ki at Adenosine A2 receptor [1] of 1.63 µM.
For `CCCn1c(=S)c2nc(C3CCCC3)[nH]c2n(CCC)c1=S`, in assay [2], the Ratio is 572. Moreover, the inhibition constant Ki on Adenosine A2 receptor [3] was 2.78 µM.
`CCCn1c(=O)c2[nH]c(-c3ccc(OCC(=O)NCCNC(=O)[C@@H](Cc4cccs4)NC(=O)OC(C)(C)C)cc3)nc2n(CCC)c1=O` showed an inhibition constant Ki at Adenosine receptor A1 [4] of 0.017 µM.
With `CCCn1c(=O)c2nc(-c3ccco3)[nH]c2n(CCC)c1=S`, the values for the inhibition constant Ki on Adenosine receptor A1 [5] and at Adenosine A2 receptor [1] were 0.032 µM and 0.594 µM, respectively.
`CCCn1c(=O)c2nc(-c3ccc(OCC(=O)OCC)cc3)[nH]c2n(CCC)c1=S` showed a Ki at Adenosine A2 receptor [1] above 5 µM.
On to `Cn1c(=O)c2nc(-c3cccs3)[nH]c2n(C)c1=S`, for which the Ki at Adenosine A2 receptor [1] is 1.74 µM.
In assay [6], `CCCn1c(=O)c2nc(-c3ccc(OCC(=O)NCCNC(=O)C(N)Cc4cccs4)cc3)[nH]c2n(CCC)c1=O.O=C(O)C(F)(F)F` (stereo not drawn) showed a Ki of 0.0013 µM.
On to `CCCn1c(=O)c2nc(-c3ccc(OCC(=O)NCCN(C)C)cc3)[nH]c2n(CCC)c1=O`, for which the Ki came out at 0.0028 µM at Adenosine receptor A1 [5] and 0.00503 µM at Adenosine A2 receptor [1].
For the molecule `Cn1c(=O)c2nc(-c3ccccc3)[nH]c2n(C)c1=S`, the Ki at Adenosine receptor A1 [5] was 0.038 µM; at Adenosine A2 receptor [1], above 7 µM.
On to `Cn1c(=S)c2nc(C3CCCC3)[nH]c2n(C)c1=O`, for which, in assay [2], the Ratio was 44.4. Further, the inhibitory constant (Ki) at Adenosine A2 receptor [3] stood at 8.98 µM.
Turning to `Br.Br.CCCn1c(=O)c2nc(-c3ccc(OCC(=O)NCCNC(=O)C(N)CCCCN)cc3)[nH]c2n(CCC)c1=O` (stereo not drawn), the Ki at Adenosine receptor A1 [5] turned out to be 0.00087 µM; at Adenosine A2 receptor [1] it was 0.18 µM.
As to `Cn1c(=S)c2nc(-c3ccccc3)[nH]c2n(C)c1=O`, the Ki on Adenosine A2 receptor [1] came to 11.3 µM.
For the molecule `Cn1c(=O)c2nc(-c3ccco3)[nH]c2n(C)c1=O`, the results for the inhibition constant (Ki) on Adenosine receptor A1 [5] and on Adenosine A2 receptor [1] were 0.35 µM and 2.78 µM, respectively.
Regarding `Cn1c(=O)c2nc(C3CCCC3)[nH]c2n(C)c1=S`, the Ki was 0.0102 µM at Adenosine receptor A1 [7] and 1.39 µM on Adenosine A2 receptor [3]. Moreover, in assay [2], the Ratio was found to be 136.
`CCCn1c(=O)c2nc(-c3cccs3)[nH]c2n(CCC)c1=S` had a Ki on Adenosine A2 receptor [1] above 5 µM.
As to `CCCn1c(=O)c2nc(-c3ccc(OCC(=O)NCCNC(=O)Cc4ccc(I)s4)cc3)[nH]c2n(CCC)c1=O`, the Ratio in assay [2] amounted to 10.3. The molecule also showed a Ki at Adenosine A2 receptor [3] of 0.116 µM.
Turning to `CCCn1c(=O)c2nc(-c3ccc(OCC(=O)NCCNC(=O)Cc4cccs4)cc3)[nH]c2n(CCC)c1=O`, the inhibition constant Ki on Adenosine A2 receptor [1] came out at 0.147 µM.
For `Cn1c(=O)c2nc(-c3ccco3)[nH]c2n(C)c1=S`, the values for the Ki on Adenosine receptor A1 [5] and on Adenosine A2 receptor [1] were 0.182 µM and 4.45 µM, respectively.
On to `CCCn1c(=O)c2[nH]c(-c3ccc(OCC(=O)NCCNC(=O)C(CCCCNC(=O)OCc4ccccc4)NC(=O)OC(C)(C)C)cc3)nc2n(CCC)c1=O` (stereo not drawn), for which, at Adenosine receptor A1 [4], the inhibition constant Ki amounted to 0.012 µM.
Turning to `Cn1c(=O)c2nc(-c3ccoc3)[nH]c2n(C)c1=O`, the Ki on Adenosine receptor A1 [5] was 0.0724 µM; on Adenosine A2 receptor [1], 0.984 µM.
At Adenosine A2 receptor [1], `CCCn1c(=O)c2[nH]c(C3CCCC3)nc2n(CCC)c1=S` came in with a Ki of 0.314 µM.
Consider `CCCn1c(=O)c2nc(-c3ccc(OCC(=O)NCCNC(=O)C(CCCCNC(=O)OCc4ccccc4)NC(=O)OC(C)(C)C)cc3)[nH]c2n(CCC)c1=S` (stereo not drawn), for which the Ki at Adenosine receptor A1 [5] worked out at 0.084 µM; at Adenosine A2 receptor [1] it was 0.87 µM.
For `CCn1c(=S)c2nc(-c3ccccc3)[nH]c2n(CC)c1=O`, at Adenosine A2 receptor [1], the Ki is 3.51 µM.
`CCCn1c(=O)c2nc(-c3ccsc3)[nH]c2n(CCC)c1=O` returned an inhibition constant (Ki) at Adenosine A2 receptor [1] of 0.121 µM.
In the case of `CCCn1c(=O)c2nc(-c3ccccc3)[nH]c2n(CCC)c1=S`, the Ki amounted to 0.0161 µM at Adenosine receptor A1 [5] and 0.422 µM on Adenosine A2 receptor [1].
The like results for `CCCn1c(=O)c2nc(-c3ccco3)[nH]c2n(CCC)c1=O` were, in that order, 0.037 µM and 0.64 µM.
In turn, `CCCn1c(=O)c2nc(-c3ccc(OCC(=O)OCC)cc3)[nH]c2n(CCC)c1=O` displayed an inhibition constant (Ki) at Adenosine A2 receptor [1] above 5 µM.
In the case of `CCCn1c(=O)c2nc(-c3ccc(OCC(=O)NCCNC(=O)CCCCCCC(=O)NCc4cccs4)cc3)[nH]c2n(CCC)c1=O`, the Ratio in assay [2] stood at 85. Further, on Adenosine A2 receptor [3], the inhibitory constant (Ki) was 0.63 µM.
The molecule `CCCn1c(=O)c2nc(-c3ccc(OCC(=O)NCCNC(=O)CCCCCCC(=O)ON4C(=O)CCC4=O)cc3)[nH]c2n(CCC)c1=S` had an inhibitory constant (Ki) in assay [8] of 0.0335 µM.
With `CCCn1c(=O)c2nc(-c3ccc(OCC(=O)NCCN)cc3)[nH]c2n(CCC)c1=S`, the inhibition constant (Ki) at Adenosine A2 receptor [1] worked out at 0.0263 µM.
For the molecule `CCCn1c(=O)c2nc(-c3ccc(OCC(=O)NCCN(C)C)cc3)[nH]c2n(CCC)c1=S`, the Ki on Adenosine A2 receptor [1] stood at 0.0279 µM.
For the molecule `CCCn1c(=O)c2nc(-c3ccc(OCC(=O)NCCNC(=O)C(N)CCCCNC(=O)OCc4ccccc4)cc3)[nH]c2n(CCC)c1=S.O=C(O)C(F)(F)F` (stereo not drawn), the inhibition constant Ki at Adenosine receptor A1 [7] is 0.0068 µM; on Adenosine A2 receptor [3], 0.322 µM. Also, the Ratio in assay [2] is 36.
As to `Cn1c(=S)c2nc(C3CCCC3)[nH]c2n(C)c1=S`, the Ratio in assay [2] came to 285. This molecule also yielded a Ki at Adenosine A2 receptor [3] of 11.5 µM.
`CCCn1c(=S)c2nc(C3CCCC3)[nH]c2n(CCC)c1=O` gave an inhibitory constant (Ki) on Adenosine A2 receptor [1] of 3.36 µM.
`Cn1c(=O)c2nc(-c3ccsc3)[nH]c2n(C)c1=O` came in with an inhibition constant Ki at Adenosine A2 receptor [1] of 0.841 µM.
In the case of `Br.Br.CCCn1c(=O)c2nc(-c3ccc(OCC(=O)NCCNC(=O)C(N)CCCCN)cc3)[nH]c2n(CCC)c1=S` (stereo not drawn), the inhibition constant Ki on Adenosine receptor A1 [5] was 0.013 µM; at Adenosine A2 receptor [1], 0.0468 µM.
On Adenosine A2 receptor [1], `CCCn1c(=O)c2nc(-c3cccs3)[nH]c2n(CCC)c1=O` came in with an inhibition constant (Ki) of 0.381 µM.
As to `CCCn1c(=O)c2nc(-c3ccc(OCC(=O)NCCNC(=O)C(N)CCCCNC(=O)OCc4ccccc4)cc3)[nH]c2n(CCC)c1=O.O=C(O)C(F)(F)F` (stereo not drawn), the results for the Ki at Adenosine receptor A1 [7] and on Adenosine A2 receptor [3] were 0.0064 µM and 0.191 µM, respectively. For the same molecule, the Ratio in assay [2] came out at 30.
For `CCCn1c(=O)c2nc(-c3ccc(OCC(=O)N(C)CCN(C)C)cc3)[nH]c2n(CCC)c1=S`, the inhibition constant (Ki) at Adenosine A2 receptor [1] came out at 0.0245 µM.
`CCCn1c(=O)c2[nH]c(-c3ccc(OCC(=O)NCCNC)cc3)nc2n(CCC)c1=O` yielded an inhibition constant (Ki) on Adenosine receptor A1 [5] of 0.0151 µM.
For `CCCn1c(=O)c2nc(-c3ccc(OCC(=O)O)cc3)[nH]c2n(CCC)c1=S`, at Adenosine A2 receptor [1], the inhibition constant (Ki) turned out to be 0.315 µM.
